The values that follow are results of earlier work, collected in patent publication US20130236544A1, “STABLE PHARMACEUTICAL COMPOSITIONS OF FESOTERODINE” (DR. REDDY'S LABORATORIES LTD., priority 2012, published 2013).

Structures can show the parent of a compound that is named as a salt.

With `CC(C)C(=O)Oc1ccc(CO)cc1[C@H](CCN(C(C)C)C(C)C)c1ccccc1` [Fesoterodine fumarate, isobutyric acid 2-((R)-3-diisopropylammonium-1-phenylpropyl)-4-(hydroxymethyl) phenyl ester hydrogen fumarate], the solubility in water entry is given as “freely soluble in water”.
